From patent US10406230B2, “Exendin-4 analogue pegylated with polyethylene glycol or derivative thereof, preparation method thereof, and pharmaceutical composition for preventing or treating diabetes, containing same as active ingredient” (priority 2011, dated 2019)

Tests used:
[1] = test system: Type 2 diabetic C57BL/6 db/db mice; experiment: Low blood glucose sustainability in non-fasting type 2 diabetic mice; format: in vivo; conditions: 25 nmol/kg intraperitoneal
Description: The following experiment was performed to evaluate low blood glucose sustainability of C40 site specific PEG bound exendin-4 composition according to the present invention in Type 2 diabetic mice.
Type 2 diabetic C57BL/6 db/db mice (male, 4-5 weeks old, Central Lab. Animal Inc.) were used, and animals were exposed to light at 12 hours cycle and were grown after having stabilized two week by allowing free intake of foods and water. The experimental animals were managed following the guideline of National Institute of Health (NIH) and authorized by Institutional Animal Care and Use Committee of Sungkyunkwan University, and the experiment was performed humanely.
C40-PEG5K-Ex4 (linear), C40-PEG20K-Ex4 (linear), C40-PEG20K-Ex4 (branch), C40-PEG23K-Ex4 (trimer) and C40-PEG50K-Ex4 (trimer) prepared from the Example 1 to 5 and Lys^27-PEG20K-Ex4 prepared in Comparative example 1b were intraperitoneally injected with 25 nmol/kg dose to male db/db mice (6-7 weeks old), blood was collected from tail vein of mice following the float time: 0, 0.5, 1, 2, 3, 4, 6, 8, 12, 24, 36, 48, 60, 72, 96 hours and blood glucose concentration was measured with ACCU-CHEK Sensor (Roche Diagnostics Corp., USA). Afterwards, the low blood glucose sustaining time (blood glucose level<8.35 mmol/l (150 mg/dL)) was additionally measured and shown in Table 4 and FIG. 12. In the present experiment, exendin-4 was used as the control group.

[2] = target: T1, GLP-1 receptor (GLP-1R) (Rattus norvegicus, UniProt P32301); experiment: RIN-m5F cell receptor binding affinity (I-125 exendin-4 displacement)
T1 construct: Islet cells (RIN-m5F, ATCC, Manassas, Va.) expressing vast quantity of GLP-1 receptor (GLP-1R) were inoculated in 12-wells plates; host or cells: RIN-m5F
T1 sequence (P32301 22-463): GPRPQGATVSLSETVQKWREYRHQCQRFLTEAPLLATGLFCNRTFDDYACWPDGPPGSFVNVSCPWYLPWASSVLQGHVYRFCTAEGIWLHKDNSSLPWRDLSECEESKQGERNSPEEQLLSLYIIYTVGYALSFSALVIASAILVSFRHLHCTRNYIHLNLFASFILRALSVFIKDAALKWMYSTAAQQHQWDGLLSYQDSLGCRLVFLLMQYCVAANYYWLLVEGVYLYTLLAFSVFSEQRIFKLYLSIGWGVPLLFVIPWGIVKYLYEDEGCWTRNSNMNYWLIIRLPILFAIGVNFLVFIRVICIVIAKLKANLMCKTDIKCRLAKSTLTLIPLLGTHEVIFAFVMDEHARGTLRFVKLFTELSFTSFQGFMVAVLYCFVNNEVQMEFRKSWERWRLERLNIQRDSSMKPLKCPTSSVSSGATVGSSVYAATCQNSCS
Description: Thorough washing was done with PBS including […] bovine serum albumin after two hours.

Example 3: exendin-4-Cys (SEQ ID NO: 1) bound at C40 with branch type 20 kDa mPEG-MAL
Blood glucose level (average) ([1]; time 0 h): 24.44 mmol/L | Blood glucose level (average) ([1]; time 0.5 h): 7.86 mmol/L | Blood glucose level (average) ([1]; time 1 h): 6.89 mmol/L | Blood glucose level (average) ([1]; time 2 h): 5.04 mmol/L | Blood glucose level (average) ([1]; time 3 h): 4.15 mmol/L | Blood glucose level (average) ([1]; time 4 h): 4.66 mmol/L | Blood glucose level (average) ([1]; time 6 h): 4.67 mmol/L | Blood glucose level (average) ([1]; time 8 h): 5.11 mmol/L | Blood glucose level (average) ([1]; time 12 h): 7.89 mmol/L | Blood glucose level (average) ([1]; time 24 h): 15.09 mmol/L | Blood glucose level (average) ([1]; time 36 h): 20.14 mmol/L | Blood glucose level (average) ([1]; time 48 h): 24.21 mmol/L | Blood glucose level (average) ([1]; time 60 h): 23.76 mmol/L

Example 1: exendin-4-Cys (cysteine at C-terminal #40 site, SEQ ID NO: 1) bound with linear 5 kDa mPEG-MAL
IC50 ([2]; RIN-m5F cells, competition with 30 pM I-125 exendin-4 (9-39), 2 hours): 1.04 nM | activity (GLP-1 receptor affinity) better than Comparative example 1a (Lys^12-PEG5K-Ex4) ([2]; ratio of IC50 values): 6 times | activity (GLP-1 receptor affinity) better than Comparative example 1b (Lys^27-PEG5K-Ex4) ([2]; ratio of IC50 values): twice | activity (GLP-1 receptor affinity) better than Comparative example 2 (Nter-PEG5K-Ex4) ([2]; ratio of IC50 values): 120 times | Blood glucose level (average) ([1]; time 0 h): 23.38 mmol/L | Blood glucose level (average) ([1]; time 0.5 h): 7.62 mmol/L | Blood glucose level (average) ([1]; time 1 h): 7.36 mmol/L | Blood glucose level (average) ([1]; time 2 h): 5.09 mmol/L | Blood glucose level (average) ([1]; time 3 h): 4.46 mmol/L | Blood glucose level (average) ([1]; time 4 h): 4.93 mmol/L | Blood glucose level (average) ([1]; time 6 h): 5.73 mmol/L | Blood glucose level (average) ([1]; time 8 h): 9.04 mmol/L | Blood glucose level (average) ([1]; time 12 h): 16.2 mmol/L | Blood glucose level (average) ([1]; time 24 h): 21.1 mmol/L

Example 2: exendin-4-Cys (SEQ ID NO: 1) bound at C40 with linear 20 kDa mPEG-MAL
low blood glucose sustaining time (time required for blood glucose level increasing back to 8.35 mmol/l) ([1]; blood glucose level<8.35 mmol/l (150 mg/dL)): 23.2 h | Blood glucose level (average) ([1]; time 0 h): 24.28 mmol/L | Blood glucose level (average) ([1]; time 0.5 h): 7.96 mmol/L | Blood glucose level (average) ([1]; time 1 h): 6.13 mmol/L | Blood glucose level (average) ([1]; time 2 h): 5.29 mmol/L | Blood glucose level (average) ([1]; time 3 h): 4.18 mmol/L | Blood glucose level (average) ([1]; time 4 h): 4.34 mmol/L | Blood glucose level (average) ([1]; time 6 h): 4.9 mmol/L | Blood glucose level (average) ([1]; time 8 h): 4.57 mmol/L | Blood glucose level (average) ([1]; time 12 h): 5.86 mmol/L | Blood glucose level (average) ([1]; time 24 h): 8.54 mmol/L | Blood glucose level (average) ([1]; time 36 h): 11.47 mmol/L | Blood glucose level (average) ([1]; time 48 h): 15.34 mmol/L | Blood glucose level (average) ([1]; time 60 h): 20.45 mmol/L | Blood glucose level (average) ([1]; time 72 h): 23.02 mmol/L

1b (Lys^27-PEG20K-Ex4): exendin-4 (SEQ ID NO: 2) PEGylated at Lys27 amine with 20 kDa mPEG-SPA [reference compound]
Blood glucose level (average) ([1]; time 0 h): 24.13 mmol/L | Blood glucose level (average) ([1]; time 0.5 h): 7.97 mmol/L | Blood glucose level (average) ([1]; time 1 h): 6.56 mmol/L | Blood glucose level (average) ([1]; time 2 h): 5.24 mmol/L | Blood glucose level (average) ([1]; time 3 h): 4.22 mmol/L | Blood glucose level (average) ([1]; time 4 h): 4.29 mmol/L | Blood glucose level (average) ([1]; time 6 h): 4.85 mmol/L | Blood glucose level (average) ([1]; time 8 h): 5.13 mmol/L | Blood glucose level (average) ([1]; time 12 h): 5.40 mmol/L | Blood glucose level (average) ([1]; time 24 h): 12.98 mmol/L | Blood glucose level (average) ([1]; time 36 h): 17.34 mmol/L | Blood glucose level (average) ([1]; time 48 h): 20.45 mmol/L | Blood glucose level (average) ([1]; time 60 h): 23.02 mmol/L
